Assay results reported in patent US5300298A, “Methods of treating obesity with purine related compounds” (The Pennsylvania Research Corporation, priority 1992, dated 1994).

What follows are compounds tested on warm-blooded animal (assay: Example II: tested as BW1433 was tested in Example I (obesity; ratio of muscle mass to fat)).
Format: in vivo, rats
Experimental: My initial studies were carried out following acute subcutaneous injections of the drug into male Sprague Dawley rats and into lean and into obese Zucker rats. Blood samples (100 microliter) were taken from the tail of the rats and measurements made of serum glycerol^6. Glycerol is an end product of lipolysis and thus an excellent indicator of the rate of whole body lipolysis. […] I discovered that in the absence of the Formula I compound tested, serum glycerol levels only differ slightly when comparing lean and obese animals. Since there is 3-4 times more fat in the obese animal this is good evidence for sluggish lipolysis per g of fat in the obese. The obese animals however seem to mobilize the fat at an earlier time after removal of their food supply (Table 1), since after 6 hours of fasting the obese serum glycerol levels are much higher than the lean.
Next, I studied the effect of chronic treatment with BW1433. For this purpose I employed 2 ml Alzet mini osmotic pumps. Each pump was loaded with 2 ml of a solution containing BW1433 or with vehicle (aqueous solution adjusted to pH II). The amount of BW1433 was adjusted so that the pump delivered either zero, 0.2 mg or 0.4 mg/Kg/hour to each animal. On the first day the animals had the pumps implanted and were given a priming (2 mg/Kg or 4 mg/Kg) dose of the antagonist. Blood was taken prior to surgery and six hours after the animals were removed from their food supply. On each subsequent day animals had free access to food and water overnight, then their food removed for six hours, and a blood sample taken.
In addition to taking blood samples for glycerol analysis, each animal was weighed every day for seven days. After seven days the animals were fasted overnight and a glucose tolerance test given The animals were then sacrificed and 1 ml blood sample taken for serum insulin and serum BW1433 determination drug levels. Insulin levels were measured with RIA kit (Diagnostic Products) and BW1433 levels were measured fluorometrically after HPLC separation at Burroughs Wellcome, Research Triangle Park, North Carolina. […] Nonetheless, when glucose tolerance curves were administered on day 7, drug-related differences could still be seen in all animals studied. […] This is illustrated more clearly in FIG. 4 where the area under the glucose tolerance curve is shown as a bar for each of the 6 groups of animals. […] FIG. 5 is a chart of the change in weight of treated and untreated lean and obese animals. […] The effect on weight change in each case was maximal at day 3, the day when the glycerol values peaked. Based on these remarkable results, the compounds of Formula I can be administered to obese warm-blooded animals as anti-obesity agents, or administered to farm animals to advantageously increase the ratio of muscle mass to fat therein.
For `Cn1c(=O)c2nc(-c3ccc(/C=C/C(=O)O)cc3)[nH]c2n(C)c1=O` [compound 2, (E)-4-(1,2,3,6-tetrahydro-1,3-dimethyl-2,6-dioxo-9H-purin-8-yl)cinnamic acid], the “activity in method of treating obesity in a warm-blooded animal and in increasing the ratio of muscle mass to fat in farm animals” value was “active and effective”.
In the case of `CCCn1c(=O)c2nc(-c3ccc(/C=C/C(=O)O)cc3)[nH]c2n(C)c1=O` [compound 3, (E)-4-(1,2,3,6-tetrahydro-3-methyl-2,6-dioxo-1-propyl-9H-purin-8-yl)cinnamic acid], the “activity in method of treating obesity in a warm-blooded animal and in increasing the ratio of muscle mass to fat in farm animals” value is reported as “active and effective”.
`CCn1c(=O)c2nc(-c3ccc(/C=C/C(=O)O)cc3)[nH]c2n(CC)c1=O` [compound 4, (E)-4-(1,3-diethyl-1,2,3,6-tetrahydro-2,6-dioxo-9H-purin-8-yl)cinnamic acid] was tested, and the “activity in method of treating obesity in a warm-blooded animal and in increasing the ratio of muscle mass to fat in farm animals” value was “active and effective”.
In the case of `C=CCn1c(=O)c2nc(-c3ccc(/C=C/C(=O)O)cc3)[nH]c2n(CC=C)c1=O` [compound 5, (E)-4-(1,3-diallyl-1,2,3,6-tetrahydro-2,6-dioxo-9H-purin-8-yl)cinnamic acid], the “activity in method of treating obesity in a warm-blooded animal and in increasing the ratio of muscle mass to fat in farm animals” value is reported as “active and effective”.
For `Cn1c(=O)[nH]c(=O)c2nc(-c3ccc(/C=C/C(=O)O)cc3)[nH]c21` [compound 6, (E)-4-(1,2,3,6-tetrahydro-3-methyl-2,6-dioxo-9H-purin-8-yl)cinnamic acid], the “activity in method of treating obesity in a warm-blooded animal and in increasing the ratio of muscle mass to fat in farm animals” value was “active and effective”.
With `CCn1c(=O)[nH]c(=O)c2nc(-c3ccc(/C=C/C(=O)O)cc3)[nH]c21` [compound 7, (E)-4-(3-ethyl-1,2,3,6-tetrahydro-2,6-dioxo-9H-purin-8-yl)cinnamic acid] the “activity in method of treating obesity in a warm-blooded animal and in increasing the ratio of muscle mass to fat in farm animals” value was “active and effective”.
In the case of `CCCn1c(=O)[nH]c(=O)c2nc(-c3ccc(/C=C/C(=O)O)cc3)[nH]c21` [compound 8, (E)-4-(1,2,3,6-tetrahydro-2,6-dioxo-3-propyl-9H-purin-8-yl)cinnamic acid], the “activity in method of treating obesity in a warm-blooded animal and in increasing the ratio of muscle mass to fat in farm animals” value is reported as “active and effective”.
In the case of `CC(C)Cn1c(=O)[nH]c(=O)c2nc(-c3ccc(/C=C/C(=O)O)cc3)[nH]c21` [compound 9, (E)-4-(1,2,3,6-tetrahydro-3-isobutyl-2,6-dioxo-9H-purin-8-yl)cinnamic acid], the “activity in method of treating obesity in a warm-blooded animal and in increasing the ratio of muscle mass to fat in farm animals” value is reported as “active and effective”.
In the case of `CCCn1c(=O)n(C)c(=O)c2nc(-c3ccc(/C=C/C(=O)O)cc3)[nH]c21` [compound 10, (E)-4-(1,2,3,6-tetrahydro-1-methyl-2,6-dioxo-3-propyl-9H-purin-8-yl)cinnamic acid], the “activity in method of treating obesity in a warm-blooded animal and in increasing the ratio of muscle mass to fat in farm animals” value is reported as “active and effective”.
`CC(C)Cn1c(=O)n(C)c(=O)c2nc(-c3ccc(/C=C/C(=O)O)cc3)[nH]c21` [compound 11, (E)-4-(1,2,3,6-tetrahydro-3-isobutyl-1-methyl-2,6-dioxo-9H-purin-8-yl)cinnamic acid] was tested, and the “activity in method of treating obesity in a warm-blooded animal and in increasing the ratio of muscle mass to fat in farm animals” value was “active and effective”.
With `CCn1c(=O)c2nc(-c3ccc(/C=C/C(=O)O)cc3)[nH]c2n(C)c1=O` [compound 12, (E)-4-(1-ethyl-1,2,3,6-tetrahydro-3-methyl-2,6-dioxo-9H-purin-8-yl)cinnamic acid] the “activity in method of treating obesity in a warm-blooded animal and in increasing the ratio of muscle mass to fat in farm animals” value was “active and effective”.
In the case of `CCCCn1c(=O)c2nc(-c3ccc(/C=C/C(=O)O)cc3)[nH]c2n(CCCC)c1=O` [compound 13, (E)-4-(1,3-dibutyl-1,2,3,6-tetrahydro-2,6-dioxo-9H-purin-8-yl)cinnamic acid], the “activity in method of treating obesity in a warm-blooded animal and in increasing the ratio of muscle mass to fat in farm animals” value is reported as “active and effective”.
In the case of `O=C(O)/C=C/c1ccc(-c2nc3c(=O)n(Cc4ccccc4)c(=O)n(Cc4ccccc4)c3[nH]2)cc1` [compound 14, (E)-4-(1,3-dibenzyl-1,2,3,6-tetrahydro-2,6-dioxo-9H-purin-8-yl)cinnamicacid], the “activity in method of treating obesity in a warm-blooded animal and in increasing the ratio of muscle mass to fat in farm animals” value is reported as “active and effective”.
With `CCCCn1c(=O)n(C)c(=O)c2nc(-c3ccc(/C=C/C(=O)O)cc3)[nH]c21` [compound 15, (E)-4-(3-butyl-1,2,3,6-tetrahydro-1-methyl-2,6-dioxo-9H-purin-8-yl)cinnamicacid] the “activity in method of treating obesity in a warm-blooded animal and in increasing the ratio of muscle mass to fat in farm animals” value was “active and effective”.
`CCCCn1c(=O)c2nc(-c3ccc(/C=C/C(=O)O)cc3)[nH]c2n(C)c1=O` [compound 16, (E)-4-(1-butyl-1,2,3,6-tetrahydro-3-methyl-2,6-dioxo-9H-purin-8-yl)cinnamic acid] was tested, and the “activity in method of treating obesity in a warm-blooded animal and in increasing the ratio of muscle mass to fat in farm animals” value was “active and effective”.
`Cn1c(=O)c2nc(-c3ccc(/C=C/C(=O)O)cc3)[nH]c2n(Cc2ccccc2)c1=O` [compound 17, (E)-4-(3-benzyl-1,2,3,6-tetrahydro-1-methyl-2,6-dioxo-9H-purin-8-yl)cinnamic acid] was tested, and the “activity in method of treating obesity in a warm-blooded animal and in increasing the ratio of muscle mass to fat in farm animals” value was “active and effective”.
For `CC(C)Cn1c(=O)c2nc(-c3ccc(/C=C/C(=O)O)cc3)[nH]c2n(CC(C)C)c1=O` [compound 18, (E)-4-(1,2,3,6-tetrahydro-1,3-diisobutyl-2,6-dioxo-9H-purin-8-yl)cinnamic acid], the “activity in method of treating obesity in a warm-blooded animal and in increasing the ratio of muscle mass to fat in farm animals” value was “active and effective”.
`Cn1c(=O)c2[nH]c(-c3ccc(/C=C/C(=O)O)cc3)nc2n(C)c1=S` [compound 19, (E)-4-(1,2,3,6-tetrahydro-1,3-dimethyl-6-oxo-2-thio-9H-purin-8-yl)cinnamicacid] was tested, and the “activity in method of treating obesity in a warm-blooded animal and in increasing the ratio of muscle mass to fat in farm animals” value was “active and effective”.
For `Cn1c(=O)c2nc(-c3ccc(/C=C/C(=O)O)cc3)[nH]c2n(Cc2ccc(C#N)cc2)c1=O` [compound 20, (E)-4-[3-(4-cyanobenzyl)-1,2,3,6-tetrahydro-1-methyl-2,6-dioxo-9H-purin-8-yl]cinnamic acid], the “activity in method of treating obesity in a warm-blooded animal and in increasing the ratio of muscle mass to fat in farm animals” value was “active and effective”.
`Cn1c(=O)c2nc(-c3ccc(/C=C/C(=O)O)cc3)[nH]c2n(Cc2cccc(C#N)c2)c1=O` [compound 21, (E)-4-[3-(3-cyanobenzyl)-1,2,3,6-tetrahydro-1-methyl-2,6-dioxo-9H-purin-8-yl]cinnamic acid] was tested, and the “activity in method of treating obesity in a warm-blooded animal and in increasing the ratio of muscle mass to fat in farm animals” value was “active and effective”.
In the case of `CCCn1c(=O)c2nc(-c3ccc(C#CC(=O)O)cc3)[nH]c2n(CCC)c1=O` [compound 22, 3-[4-(1,2,3,6-tetrahydro-2,6-dioxo-1,3-dipropyl-9H-purin-8-yl)phenyl]propiolic acid], the “activity in method of treating obesity in a warm-blooded animal and in increasing the ratio of muscle mass to fat in farm animals” value is reported as “active and effective”.
With `Cn1c(=O)n(Cc2ccc(C#N)cc2)c(=O)c2nc(-c3ccc(/C=C/C(=O)O)cc3)[nH]c21` [compound 23, (E)-4-[1-(4-cyanobenzyl)-1,2,3,6-tetrahydro-3-methyl-2,6-dioxo-9H-purin-8-yl]cinnamic acid] the “activity in method of treating obesity in a warm-blooded animal and in increasing the ratio of muscle mass to fat in farm animals” value was “active and effective”.
With `CCCn1c(=O)n(Cc2ccccc2)c(=O)c2nc(-c3ccc(/C=C/C(=O)O)cc3)[nH]c21` [compound 24, (E)-4-(1-benzyl-1,2,3,6-tetrahydro-2,6-dioxo-3-propyl-9H-purin-8-yl)cinnamic acid] the “activity in method of treating obesity in a warm-blooded animal and in increasing the ratio of muscle mass to fat in farm animals” value was “active and effective”.
With `CCCn1c(=O)c2nc(-c3ccc(/C=C/C(=O)O)cc3)[nH]c2n(Cc2ccccc2)c1=O` [compound 25, (E)-4-(3-benzyl-1,2,3,6-tetrahydro-2,6-dioxo-1-propyl-9H-purin-8-yl)cinnamic acid] the “activity in method of treating obesity in a warm-blooded animal and in increasing the ratio of muscle mass to fat in farm animals” value was “active and effective”.
